Reference: PMC11597817, “Modulation of Multispecific Transporters by Uncaria tomentosa Extract and Its Major Phytoconstituents” (Pharmaceutics, 2024)

What was measured:
NIH/3T3 = assay: Antiproliferative MTT assay; format: cell-based, murine; conditions: 30 μM pure natural product, 72 h
Method: (§1) For the determination of the antiproliferative properties of the prepared extract and selected alkaloids (isopteropodine, mitraphylline, and uncarine D), an MTT assay was applied on our […] cell panel (see Table S4). […] All were maintained in a minimal essential medium completed with 10% fetal bovine serum, 1% non-essential amino acids, and 1% penicillin–streptomycin at 37 °C in a humidified atmosphere containing 5% CO2. All cell lines were purchased from the European Collection of Cell Cultures (Salisbury, UK), except for SiHa and C33A, which were from the American Tissue Culture Collection, LGC Standards GmbH (Wesel, Germany). Cell culture media and supplements were obtained from Lonza Group Ltd. (Basel, Switzerland). Cells were seeded into 96-well plates (C33A 10,000/well, all others 5000/well); after overnight incubation, the test substances were added and incubated for another 72 h under cell-culturing conditions. Uncaria tomentosa extract and the alkaloids were tested in the 1–90 μg/mL and 1–30 μM ranges, respectively. Finally, 20 μL of 5 mg/mL MTT solution was added to each well and incubated for 4 h; the medium was discarded, and the precipitated formazan crystals were dissolved in DMSO for 60 min with shaking. The absorbance was determined using a microplate reader (SPECTROstar Nano, BMG Labtech GmbH). Two independent experiments were performed with five parallels for each condition. Cisplatin, a clinically used anticancer agent (Ebewe GmbH, Unterach, Austria), was included as a reference compound. Calculations were conducted using the GraphPad Prism 10.0 software (GraphPad Software Inc., San Diego, CA, USA).
Table S4 – Antiproliferative properties of Uncaria tomentosa extract, three natural products (isopteropodine, mitraphylline, and uncarine D) and the
reference agent cisplatin.
Cell line Uncaria tomentosa isopteropodine mitraphylline uncarine D [95% confidence
1: The highest applied concentration was 90 μg/mL and 30 μM for the extract and the pure natural products, respectively.
2: Inhibitions less than 20% compared to the untreated control were regarded as negligible and were not given numerically.

HEK293-MDR1 = assay: Antiproliferative MTT assay; format: cell-based, human; conditions: 30 μM pure natural product, 72 h
Method: as §1, with “Two independent experiments were performed with five parallels for each condition. Cisplatin, a clinically used anticancer agent (Ebewe GmbH, Unterach, Austria), was included as a reference compound. Calculations were conducted using the GraphPad Prism 10.0 software (GraphPad Software Inc., San Diego, CA, USA).” left out

[1] = system: pregnane X receptor (PXR); conditions: cited from earlier work

SMILES	Cell growth inhibition at the highest concentration (% ± SEM) (NIH/3T3)	Cell growth inhibition at the highest concentration (% ± SEM) (HEK293-MDR1)	PXR activation [1]
COC(=O)C1=CO[C@@H](C)[C@@H]2CN3CC[C@@]4(C(=O)Nc5ccccc54)[C@@H]3C[C@H]12 [isopteropodine]	< 20%	< 20%	PXR activators
COC(=O)C1=CO[C@@H](C)[C@H]2CN3CC[C@]4(C(=O)Nc5ccccc54)[C@@H]3C[C@H]12 [mitraphylline]	< 20%	< 20%	PXR activators
